Test results from the NIST ThermoML archive (doi:10.1016/j.jct.2016.08.033).
Numbers after ± are expanded uncertainties.

Experiments:
[1] = refractive index (Na D-line) (dimensionless); conditions: 303.15 K; 101.33 kPa; Liquid; Standard Abbe refractometry
[2] = 303.15 K; 101.33 kPa; Liquid; Vibrating tube method

SMILES	refractive index [1]	mass density [2] [kg/m3]
CCn1cc[n+](C)c1.O=S(=O)([N-]S(=O)(=O)C(F)(F)F)C(F)(F)F	1.42162 ± 0.0011	1513.74 ± 1.2
CCCCCC[n+]1ccn(C)c1.O=S(=O)([N-]S(=O)(=O)C(F)(F)F)C(F)(F)F	1.42851 ± 0.0011	1367.17 ± 1.1
CCCC(=O)OC(C)CCC (configuration not stated) [1-methylbutyl butanoate]	1.40283 ± 0.0011	849.19 ± 1

More lines, now with the values ahead:

refractive index [1]	mass density [2] [kg/m3]	SMILES
1.40494 ± 0.0011	888.65 ± 1	C=COC(=O)CCC [vinyl butanoate]
1.39394 ± 0.0011	948.44 ± 1	CCCC(=O)O [butanoic acid]
1.40216 ± 0.0021	800.09 ± 2.1	CCCC(C)O (configuration not stated) [pentan-2-ol]
